This note sets out measurements from ChEMBL document CHEMBL1201862, “PubChem BioAssay data set” (2004).

As usually defined, the IC50 is the point on the concentration scale where inhibition reaches its midpoint. As usually defined, the AC50 is the midpoint of the concentration-response curve, whichever way the signal moves. For orientation: EC50 means the midpoint of the concentration-response curve.

Active and inactive are the calls of the source.

Assay [1] addresses T1, Dual specificity protein phosphatase 6 (Rattus norvegicus, UniProt Q64346). It is filed as functional.
In assay [2] the target is T2, Tyrosine-protein phosphatase non-receptor type 7 (Homo sapiens, UniProt P35236).
T2 sequence (P35236 whole entry): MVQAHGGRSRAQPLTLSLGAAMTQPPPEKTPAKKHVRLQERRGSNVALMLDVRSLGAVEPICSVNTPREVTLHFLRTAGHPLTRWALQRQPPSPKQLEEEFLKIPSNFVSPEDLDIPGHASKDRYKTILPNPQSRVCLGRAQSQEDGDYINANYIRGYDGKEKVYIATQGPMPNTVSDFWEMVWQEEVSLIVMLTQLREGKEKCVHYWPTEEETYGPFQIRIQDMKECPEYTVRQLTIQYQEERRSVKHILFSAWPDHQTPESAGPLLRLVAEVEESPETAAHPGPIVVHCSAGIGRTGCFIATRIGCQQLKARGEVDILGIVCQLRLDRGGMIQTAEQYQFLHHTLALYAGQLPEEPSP
In words: redox-active compounds inhibiting HePTP phosphatase – biochemical, fluorescence, mechanism study (AID 2068). It counts as functional.

Assay [3] concerns the target T3, Dual specificity protein phosphatase 3 (Homo sapiens, UniProt P51452). In words: VHR1 phosphatase inhibitors, biochemical (AID 1878).
A further assay deals with Genome polyprotein (dengue virus type 2, UniProt P29990). The assay can be described thus: flavivirus cap methylation enzyme inhibition – biochemical, confirmation dose response, primary screen (AID 588689). It counts as functional.
Genome polyprotein, sequence (P29990 2492-3391 limits assumed): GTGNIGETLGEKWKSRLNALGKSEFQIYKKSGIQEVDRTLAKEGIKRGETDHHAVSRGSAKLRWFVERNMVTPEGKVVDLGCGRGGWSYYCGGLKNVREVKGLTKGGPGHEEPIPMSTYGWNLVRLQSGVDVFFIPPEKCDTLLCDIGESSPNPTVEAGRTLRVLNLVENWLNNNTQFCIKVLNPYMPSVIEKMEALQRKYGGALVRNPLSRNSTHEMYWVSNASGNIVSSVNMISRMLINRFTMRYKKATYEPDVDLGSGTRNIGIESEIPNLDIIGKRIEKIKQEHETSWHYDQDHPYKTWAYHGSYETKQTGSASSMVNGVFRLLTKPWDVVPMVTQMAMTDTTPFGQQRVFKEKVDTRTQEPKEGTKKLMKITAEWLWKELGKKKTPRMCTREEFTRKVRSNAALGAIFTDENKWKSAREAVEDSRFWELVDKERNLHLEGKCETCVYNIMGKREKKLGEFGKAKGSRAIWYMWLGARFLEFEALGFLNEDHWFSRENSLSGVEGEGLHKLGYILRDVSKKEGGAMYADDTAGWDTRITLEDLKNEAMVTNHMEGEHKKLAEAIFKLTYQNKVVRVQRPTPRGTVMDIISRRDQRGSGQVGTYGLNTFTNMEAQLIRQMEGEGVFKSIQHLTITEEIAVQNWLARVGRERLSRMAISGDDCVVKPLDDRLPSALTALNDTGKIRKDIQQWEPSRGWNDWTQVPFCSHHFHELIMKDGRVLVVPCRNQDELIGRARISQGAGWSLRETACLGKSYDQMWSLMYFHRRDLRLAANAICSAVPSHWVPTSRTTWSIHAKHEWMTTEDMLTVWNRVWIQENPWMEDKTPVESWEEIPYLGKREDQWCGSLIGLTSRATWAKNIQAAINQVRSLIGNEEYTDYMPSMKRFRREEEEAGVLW
Assay [4] concerns the target T3, Dual specificity protein phosphatase 3. The assay can be described thus: VHR1 phosphatase inhibitors, primary screen, biochemical, absorbance, uHTS (AID 1654).
The target in assay [5] is DNA (cytosine-5)-methyltransferase 1 (Homo sapiens, UniProt P26358). In words: inhibition of DNA methylation by DNMT1 – biochemical, fluorescent molecular beacon, confirmation (AID 602386). It counts as functional.
A further assay deals with T4, Aminopeptidase N (Plasmodium falciparum FcB1/Columbia, UniProt O96935).
T4 sequence (O96935 whole entry): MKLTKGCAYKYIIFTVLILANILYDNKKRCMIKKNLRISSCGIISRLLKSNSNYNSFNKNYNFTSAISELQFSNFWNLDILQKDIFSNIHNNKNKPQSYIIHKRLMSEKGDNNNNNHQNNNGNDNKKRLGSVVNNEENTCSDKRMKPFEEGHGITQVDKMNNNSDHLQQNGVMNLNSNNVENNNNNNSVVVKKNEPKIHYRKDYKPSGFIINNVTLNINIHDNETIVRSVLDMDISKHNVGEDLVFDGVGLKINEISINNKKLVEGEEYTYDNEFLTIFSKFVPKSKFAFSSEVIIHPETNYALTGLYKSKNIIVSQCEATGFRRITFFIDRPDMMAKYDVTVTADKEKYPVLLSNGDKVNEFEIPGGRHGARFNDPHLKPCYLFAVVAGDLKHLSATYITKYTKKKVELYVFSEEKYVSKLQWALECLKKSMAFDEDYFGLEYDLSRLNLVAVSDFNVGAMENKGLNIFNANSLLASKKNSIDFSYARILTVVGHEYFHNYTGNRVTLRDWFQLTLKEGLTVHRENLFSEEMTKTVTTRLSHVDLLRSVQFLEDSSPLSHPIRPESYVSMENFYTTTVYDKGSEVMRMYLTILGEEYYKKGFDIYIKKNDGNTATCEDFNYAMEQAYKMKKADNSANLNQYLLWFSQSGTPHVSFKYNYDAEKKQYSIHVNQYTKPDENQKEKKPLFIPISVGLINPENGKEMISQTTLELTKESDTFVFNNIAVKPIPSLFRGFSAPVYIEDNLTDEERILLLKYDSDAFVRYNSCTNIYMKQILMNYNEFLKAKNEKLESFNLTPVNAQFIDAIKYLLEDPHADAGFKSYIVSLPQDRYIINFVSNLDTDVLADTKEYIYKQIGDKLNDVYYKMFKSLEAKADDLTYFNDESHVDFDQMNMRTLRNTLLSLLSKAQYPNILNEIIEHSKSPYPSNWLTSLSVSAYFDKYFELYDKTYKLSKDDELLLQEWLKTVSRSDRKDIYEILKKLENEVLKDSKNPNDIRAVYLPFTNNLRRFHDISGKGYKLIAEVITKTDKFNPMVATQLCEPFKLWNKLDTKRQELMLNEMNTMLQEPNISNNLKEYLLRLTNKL
In words: malaria alanyl aminopeptidase activity blockers – biochemical, fluorogenic H-Leu-NHMec substrate, 1536-well (AID 1445). The arrangement: species or system Plasmodium falciparum 3D7, 3D7.

The target in assay [6] is T1, Dual specificity protein phosphatase 6. The assay can be described thus: inhibition of rat DUSP6 enzyme activity – biochemical, in vitro, primary screen (AID 425).
For assay [7], the target named is NAD-dependent protein deacylase sirtuin-5, mitochondrial (Homo sapiens, UniProt Q9NXA8). The assay can be described thus: sirtuin-5 deacylation blockers, concentration series – biochemical, fluorescence imaging, cherry-pick, set 5, dose response (AID 720591).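 Further: desuccinylation of succinyl peptide AMC substrate read as fluorescence after trypsin release; potency of inhibitors that lower fluorescence and may act on trypsin instead.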
NAD-dependent protein deacylase sirtuin-5, mitochondrial, sequence (Q9NXA8 whole entry): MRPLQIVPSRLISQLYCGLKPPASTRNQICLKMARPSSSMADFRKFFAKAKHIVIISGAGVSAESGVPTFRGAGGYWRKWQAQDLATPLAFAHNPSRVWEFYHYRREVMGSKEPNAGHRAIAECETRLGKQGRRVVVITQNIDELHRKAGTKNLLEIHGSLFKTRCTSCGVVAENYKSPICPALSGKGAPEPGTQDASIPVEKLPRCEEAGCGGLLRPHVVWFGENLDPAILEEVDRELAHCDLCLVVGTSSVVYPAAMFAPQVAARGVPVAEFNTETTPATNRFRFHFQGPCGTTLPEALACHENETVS
Assay [8] has as its target T3, Dual specificity protein phosphatase 3. In words: SAR VHR1 Fluorescent Assay for In Vitro dose response studies. [Related pubchem assays (depositor defined):AID1654, AID1661, AID1878, AID1992, AID2004, AID2070, AID2085]. It is filed as functional.
Assay [9] has the same target. The assay can be described thus: SAR VHR1 absorbance Assay for In Vitro dose response studies. [Related pubchem assays (depositor defined):AID1654, AID1661, AID1878, AID1992, AID2004].
The target of assay [10] is T5, Microphthalmia-associated transcription factor (Homo sapiens, UniProt O75030).
T5 sequence (O75030 whole entry): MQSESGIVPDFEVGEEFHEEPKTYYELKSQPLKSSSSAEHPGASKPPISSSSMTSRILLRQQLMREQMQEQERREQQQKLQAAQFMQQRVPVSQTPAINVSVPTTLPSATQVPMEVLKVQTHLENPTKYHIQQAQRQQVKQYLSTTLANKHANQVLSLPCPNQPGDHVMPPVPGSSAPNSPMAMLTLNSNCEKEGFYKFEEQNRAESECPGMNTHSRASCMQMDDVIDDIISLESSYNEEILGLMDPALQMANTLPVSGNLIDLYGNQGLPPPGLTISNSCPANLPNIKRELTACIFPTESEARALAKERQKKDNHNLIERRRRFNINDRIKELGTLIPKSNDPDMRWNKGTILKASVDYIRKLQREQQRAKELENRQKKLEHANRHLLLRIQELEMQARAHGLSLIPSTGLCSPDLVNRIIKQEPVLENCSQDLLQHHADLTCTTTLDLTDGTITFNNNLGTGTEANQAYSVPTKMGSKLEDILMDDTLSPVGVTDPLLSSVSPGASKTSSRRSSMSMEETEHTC
The assay can be described thus: reducers of TRPM1 reporter luminescence, concentration series – cell-based, SK-MEL-5, cherry-picked, set 3, MITF inhibitor project, dose response (AID 493073).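 Further: SK-MEL-5 melanoma cells with luciferase driven by the MITF target TRPM1 promoter.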 It is filed as functional.

Assay [11] can be described thus: HEK-293T viability loss, compound-treated – cell-based, uHTS hits, cytotoxicity control for B/T-cell NF-kB inhibitor project, dose response (AID 489019).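 Further: IC50 reflects cytotoxicity as loss of cell viability.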 It is filed as functional.
The subject of assay [12] is A-375. In words: proliferation inhibition in MITF-low A375 cells – cell-based, cherry-pick samples, set 2, counter-screen for MITF modulator project, dose response (AID 540335). It is filed as functional. As to conditions: Homo sapiens.
Assay [13] has as its system A-375. In words: MITF: Counter assay: A375 proliferation Measured in Cell-Based System Using Plate Reader - 2084-03_Inhibitor_Dose_DryPowder_Activity. [Related pubchem assays (depositor defined):AID488944]. It is filed as functional. As to conditions: Homo sapiens.
The subject of the next assay is Jurkat. The assay can be described thus: blockers of NF-kB activation in T cells – Jurkat, luciferase reporter, luminescence, B- and T-cell, dose response (AID 489004).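 Further: NF-kB luciferase reporter Jurkat cells stimulated with PMA plus ionomycin.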 It is filed as functional, cell-based. Particulars: Homo sapiens. (Reporter assays use an easily measured gene product as a stand-in for the process of interest.)
For a further assay, the system named is HEK293. In words: EBV LMP1 TES2 canonical NF-kB signalling blockers – cell-based, HEK293, luciferase, cherry-pick, dose response (AID 588343). It is filed as functional. Particulars: Homo sapiens.
The target of assay [14] is Voltage-gated inwardly rectifying potassium channel KCNH2 (Homo sapiens, UniProt Q12809). The assay can be described thus: concentration-dependent hERG rescue from blockers – cell-based, thallium flux, dose response (AID 2121). It counts as ADME. In general terms: The hERG channel carries a current that helps repolarise heart muscle cells.
Voltage-gated inwardly rectifying potassium channel KCNH2, sequence (Q12809 whole entry): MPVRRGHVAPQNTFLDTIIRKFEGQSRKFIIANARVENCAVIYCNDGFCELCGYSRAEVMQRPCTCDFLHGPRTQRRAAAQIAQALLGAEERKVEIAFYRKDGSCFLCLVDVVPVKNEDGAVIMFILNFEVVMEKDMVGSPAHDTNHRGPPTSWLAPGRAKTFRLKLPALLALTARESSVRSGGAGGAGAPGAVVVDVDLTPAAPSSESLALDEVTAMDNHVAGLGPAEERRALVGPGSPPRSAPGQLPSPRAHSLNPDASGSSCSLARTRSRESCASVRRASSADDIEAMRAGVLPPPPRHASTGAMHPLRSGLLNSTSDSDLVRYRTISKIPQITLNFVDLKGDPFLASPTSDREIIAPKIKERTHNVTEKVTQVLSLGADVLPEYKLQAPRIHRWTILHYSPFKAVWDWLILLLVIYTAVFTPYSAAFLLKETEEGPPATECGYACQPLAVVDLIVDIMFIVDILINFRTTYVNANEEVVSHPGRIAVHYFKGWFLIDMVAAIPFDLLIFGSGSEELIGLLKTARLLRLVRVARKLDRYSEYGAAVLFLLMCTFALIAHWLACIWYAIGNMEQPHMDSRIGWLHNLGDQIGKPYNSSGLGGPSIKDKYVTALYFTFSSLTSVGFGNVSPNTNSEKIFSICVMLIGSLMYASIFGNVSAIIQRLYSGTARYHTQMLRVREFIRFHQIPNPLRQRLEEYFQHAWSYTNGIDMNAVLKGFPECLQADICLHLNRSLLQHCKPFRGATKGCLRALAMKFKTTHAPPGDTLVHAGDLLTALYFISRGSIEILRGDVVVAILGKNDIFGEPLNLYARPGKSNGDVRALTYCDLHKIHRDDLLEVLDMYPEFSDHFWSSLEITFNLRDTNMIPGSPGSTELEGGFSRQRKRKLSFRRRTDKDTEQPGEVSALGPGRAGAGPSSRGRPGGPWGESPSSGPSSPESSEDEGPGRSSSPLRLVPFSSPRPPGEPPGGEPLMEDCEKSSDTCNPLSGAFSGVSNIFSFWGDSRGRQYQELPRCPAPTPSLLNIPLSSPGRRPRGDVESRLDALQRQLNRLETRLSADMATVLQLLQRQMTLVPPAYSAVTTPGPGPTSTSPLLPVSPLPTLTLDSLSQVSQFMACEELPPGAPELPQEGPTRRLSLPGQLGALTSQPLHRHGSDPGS
Assay [15] concerns the target Delta-type opioid receptor (Homo sapiens, UniProt P41143). In words: Counterscreen for agonists of heterodimerization of the mu 1 (OPRM1) and delta 1 (OPRD1) opioid receptors: Luminescence-based cell-based high throughput dose response assay to identify agonists of OPRD1 homodimerization. [Related pubchem assays (depositor defined):AID504326, AID504355, AID504692, AID504904, AID504905]. It is filed as functional. In general terms: Counterscreens check selectivity or assay interference.

A further assay concerns the target Mu-type opioid receptor (Homo sapiens, UniProt P35372). In words: Counterscreen for agonists of heterodimerization of the mu 1 (OPRM1) and delta 1 (OPRD1) opioid receptors: Luminescence-based cell-based high throughput dose response assay to identify agonists of OPRM1 homodimerization. It counts as functional.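 Further: U2OS cells expressing OPRM1 and beta-arrestin as split beta-galactosidase partners.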
For assay [16], the target named is 5-hydroxytryptamine receptor 5A (Homo sapiens, UniProt P47898). In words: Counterscreen for agonists of OPRM1-OPRD1 heterodimerization: luminescence-based cell-based high throughput dose response assay to identify agonists of 5-hydroxytryptamine (serotonin) 5A receptor (HTR5A). [Related pubchem assays (depositor defined):AID504326, AID504355, AID504692, AID504904, AID504905]. It is filed as functional.
5-hydroxytryptamine receptor 5A, sequence (P47898 whole entry): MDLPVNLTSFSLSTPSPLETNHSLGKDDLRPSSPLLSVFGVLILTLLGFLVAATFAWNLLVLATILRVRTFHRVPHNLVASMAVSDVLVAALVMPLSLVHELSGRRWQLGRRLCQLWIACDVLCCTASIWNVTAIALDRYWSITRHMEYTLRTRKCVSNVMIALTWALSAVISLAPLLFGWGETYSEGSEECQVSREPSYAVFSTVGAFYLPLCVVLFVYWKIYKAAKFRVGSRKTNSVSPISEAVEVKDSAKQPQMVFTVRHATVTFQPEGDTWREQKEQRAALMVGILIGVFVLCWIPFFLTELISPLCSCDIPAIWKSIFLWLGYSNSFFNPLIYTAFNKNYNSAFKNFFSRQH

T3 sequence (P51452 whole entry): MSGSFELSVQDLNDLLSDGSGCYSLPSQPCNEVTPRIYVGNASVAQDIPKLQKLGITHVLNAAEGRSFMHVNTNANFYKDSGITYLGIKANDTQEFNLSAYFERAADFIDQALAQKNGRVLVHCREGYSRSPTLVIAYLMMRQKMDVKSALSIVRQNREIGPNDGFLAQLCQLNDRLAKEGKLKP
T1 sequence (Q64346 whole entry): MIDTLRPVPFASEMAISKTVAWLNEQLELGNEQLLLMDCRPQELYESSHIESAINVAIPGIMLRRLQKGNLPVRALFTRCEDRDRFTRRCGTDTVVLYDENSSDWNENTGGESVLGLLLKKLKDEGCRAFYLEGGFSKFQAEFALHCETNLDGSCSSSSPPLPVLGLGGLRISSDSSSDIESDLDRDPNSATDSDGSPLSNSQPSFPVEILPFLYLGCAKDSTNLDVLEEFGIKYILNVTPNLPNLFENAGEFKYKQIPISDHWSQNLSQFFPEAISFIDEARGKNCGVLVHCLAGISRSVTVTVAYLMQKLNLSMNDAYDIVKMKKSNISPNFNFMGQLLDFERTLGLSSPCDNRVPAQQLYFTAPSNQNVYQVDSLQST
Delta-type opioid receptor, sequence (P41143 whole entry): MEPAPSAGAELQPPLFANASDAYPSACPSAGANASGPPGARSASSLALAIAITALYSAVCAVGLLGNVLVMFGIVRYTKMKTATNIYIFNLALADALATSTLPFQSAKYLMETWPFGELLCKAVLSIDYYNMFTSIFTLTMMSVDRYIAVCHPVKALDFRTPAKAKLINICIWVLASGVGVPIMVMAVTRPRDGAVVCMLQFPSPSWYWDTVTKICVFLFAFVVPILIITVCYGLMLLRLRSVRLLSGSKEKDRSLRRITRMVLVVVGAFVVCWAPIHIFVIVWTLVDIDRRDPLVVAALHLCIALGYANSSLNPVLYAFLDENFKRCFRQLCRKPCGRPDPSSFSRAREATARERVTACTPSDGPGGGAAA
Mu-type opioid receptor, sequence (P35372 whole entry): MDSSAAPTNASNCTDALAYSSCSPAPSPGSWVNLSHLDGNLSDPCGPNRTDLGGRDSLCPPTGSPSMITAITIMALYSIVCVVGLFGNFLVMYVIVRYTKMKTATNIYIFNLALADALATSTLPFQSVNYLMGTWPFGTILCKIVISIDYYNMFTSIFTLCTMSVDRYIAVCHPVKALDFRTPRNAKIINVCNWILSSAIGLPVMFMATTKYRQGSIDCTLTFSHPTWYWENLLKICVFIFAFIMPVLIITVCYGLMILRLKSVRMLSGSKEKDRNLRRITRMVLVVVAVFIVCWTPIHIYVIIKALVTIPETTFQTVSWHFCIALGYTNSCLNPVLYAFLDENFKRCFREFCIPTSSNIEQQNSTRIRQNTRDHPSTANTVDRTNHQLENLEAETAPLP

For the molecule `O=C(O)CSc1cc(C(=O)c2ccccc2O)cn2c(=O)c3c4c(sc3nc12)CCCC4`, the IC50 was > 99 µM (inactive) in [1]; 576 nM (active) in [2]; 7.42 µM (active) in assay [3]; 94.1 µM (active) on Genome polyprotein; 19 µM (active) in assay [4]; 14.1 µM (active) in assay [5]. In addition, the IC50 was 19.5 µM (active) at Aminopeptidase N, > 158 µM (not active) in assay [6], 13.5 µM (active) in [8] and 2.62 µM (active) in assay [9]. Also, the AC50 in [7] is 5.07 µM (active).

Consider `CCOc1ccc(/C=C2\SC(=S)N(CCC(=O)O)C2=O)cc1`, for which the values for the AC50 (in assay [10]; in the assay on A-375 [12]; with A-375 [13]) were 577 nM (active), > 35 µM (active) and > 35 µM (active), respectively. For the same molecule, the IC50 in assay [11] is > 80 µM (inactive); with Jurkat it was < 160 nM (active).

Consider `Cc1ccccc1Cn1c(O)c(N=NC(S)=Nc2ccccc2F)c2ccccc21`, for which the AC50 with HEK293 was 3.18 µM (active). The EC50 in [14] is 870 nM (active); in [15], > 92.5 µM (inactive); at Mu-type opioid receptor it was > 92.5 µM (inactive); in assay [16], > 92.5 µM (inactive).
